Consider six compounds from paper PMC11025096, “Universal Glycosyltransferase Continuous Assay for Uniform Kinetics and Inhibition Database Development and Mechanistic Studies Illustrated on ST3GAL1, C1GALT1, and FUT1” (ACS Omega, 2024).

The term IC50 denotes the concentration at which inhibition is half-maximal.

Test [1] concerns the target T1, FUT1 (Homo sapiens, UniProt P19526).
T1 construct: pGEn2 construct expressed in HEK293F; tag removed with TEV protease
T1 sequence (P19526 1-365): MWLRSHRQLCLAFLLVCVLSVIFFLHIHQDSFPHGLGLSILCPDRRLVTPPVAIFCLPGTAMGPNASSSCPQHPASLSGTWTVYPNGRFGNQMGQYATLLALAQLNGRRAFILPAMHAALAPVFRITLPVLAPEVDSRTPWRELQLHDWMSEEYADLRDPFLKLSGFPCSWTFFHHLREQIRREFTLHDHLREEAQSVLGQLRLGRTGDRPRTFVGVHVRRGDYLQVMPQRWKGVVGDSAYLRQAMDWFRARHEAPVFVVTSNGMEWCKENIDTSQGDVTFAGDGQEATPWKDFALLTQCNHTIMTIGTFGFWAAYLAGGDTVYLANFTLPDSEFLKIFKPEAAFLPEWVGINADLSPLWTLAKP
Briefly: Michaelis-Menten kinetics, UGC continuous coupled assay (NDK/PK/LDH). The format is biochemical.

For test [2], the target named is T2, ST3GAL1 (Homo sapiens, UniProt Q11201).
T2 construct: pGEn2 construct expressed in HEK293F; tag removed with TEV protease
T2 sequence (Q11201 1-340): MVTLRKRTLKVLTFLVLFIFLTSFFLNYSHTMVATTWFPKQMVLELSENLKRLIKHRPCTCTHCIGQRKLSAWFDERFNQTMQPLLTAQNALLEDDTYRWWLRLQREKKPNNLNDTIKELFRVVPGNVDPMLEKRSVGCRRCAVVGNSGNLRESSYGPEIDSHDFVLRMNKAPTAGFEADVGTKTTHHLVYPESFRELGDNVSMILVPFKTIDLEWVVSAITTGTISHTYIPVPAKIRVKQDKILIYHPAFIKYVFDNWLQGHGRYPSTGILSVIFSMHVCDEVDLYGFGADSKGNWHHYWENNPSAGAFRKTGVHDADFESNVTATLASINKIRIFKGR
Briefly: Michaelis-Menten kinetics, UGC continuous coupled assay (CMK/NDK/PK/LDH). The format is biochemical.

The target in the next test is T3, CMK (cytidylate kinase) (Escherichia coli, UniProt P0A6I0).
T3 sequence (P0A6I0 1-227): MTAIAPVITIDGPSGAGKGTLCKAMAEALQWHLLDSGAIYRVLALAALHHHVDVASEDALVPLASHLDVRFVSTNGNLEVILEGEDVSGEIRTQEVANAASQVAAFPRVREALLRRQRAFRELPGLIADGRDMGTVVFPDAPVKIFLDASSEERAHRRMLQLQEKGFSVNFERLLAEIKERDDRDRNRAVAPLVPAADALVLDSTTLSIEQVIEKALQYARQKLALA
Briefly: coupled PK/LDH NADH fluorescence progress curves over CMP serial dilution. The format is biochemical.

In test [3] the target is T1, FUT1. Briefly: donor at fixed saturating concentration in UGC continuous coupled assay (NDK/PK/LDH). The format is biochemical.
Test [4] deals with T2, ST3GAL1. Briefly: UGC continuous coupled NADH fluorescence assay, […] min enzyme-inhibitor preincubation, dose response. The format is biochemical.
Test [5] concerns the target T1, FUT1. The description is as above. The format is biochemical.
A further test deals with T4, C1GALT1 (Homo sapiens, UniProt Q9NS00).
T4 construct: pGEn2 construct expressed in HEK293F (coexpressed with chaperone C1GALT1C1); tag removed with TEV protease
Briefly: biochemical. On the set-up: UGC coupled continuous assay, NADH fluorescence depletion, 30 min enzyme-inhibitor preincubation, 37 °C. The conditions noted are these: acceptor 2x Km, donor 0.5x Km; rate at 5 min; extrapolated; read-out: Log IC50 (M) C1GALT1 (converted). The method, then: (§1) Soyasaponin 1 stock solution was prepared at 1.25 mM in 2% (v/v) Triton X-100 and 10% (v/v) DMSO. Inhibition assays were performed following a method similar to that used in the kinetics study. The master mixtures included all of the components except for the inhibitor and the enzyme. A 2-fold serial dilution from the inhibitor’s stock solution was prepared in a blank solution containing 2 and 10% (v/v) Triton X-100 and DMSO, respectively. The enzyme and the inhibitor were mixed, distributed to the wells, and preincubated for 30 min at 37 °C. A 10 min incubation period was also carried out at 37 °C for the master mixture, and the reaction was initiated by adding the master mixture to the wells. […] The effect of the activity percentage was calculated at each concentration of the inhibitor as follows [drawing 1] where SI, S100, S0 are the absolute values of the slopes from the progress curves of the reaction with inhibitor, […] respectively. IC50 and pIC50 (−log IC50 in molar concentration) values were calculated as depicted in Tables S3 and S4 (Supporting Information). Rates for the comparative dose response were calculated for each enzyme at the last time point where the uninhibited reaction maintained its linearity. […] Time and dose dependent inhibition was measured at varying concentrations of Soyasaponin 1. […]

Test [6] addresses T2, ST3GAL1. Briefly: biochemical. The conditions noted are these: acceptor and donor at Km; 20 min; read-out: Log IC50 (M) 20 Minutes (converted). On the set-up: UGC coupled continuous assay, NADH fluorescence depletion, 30 min enzyme-inhibitor preincubation, 37 °C. The method, then: as §1

Each structure is given as a SMILES string.

T4 sequence (Q9NS00 whole entry): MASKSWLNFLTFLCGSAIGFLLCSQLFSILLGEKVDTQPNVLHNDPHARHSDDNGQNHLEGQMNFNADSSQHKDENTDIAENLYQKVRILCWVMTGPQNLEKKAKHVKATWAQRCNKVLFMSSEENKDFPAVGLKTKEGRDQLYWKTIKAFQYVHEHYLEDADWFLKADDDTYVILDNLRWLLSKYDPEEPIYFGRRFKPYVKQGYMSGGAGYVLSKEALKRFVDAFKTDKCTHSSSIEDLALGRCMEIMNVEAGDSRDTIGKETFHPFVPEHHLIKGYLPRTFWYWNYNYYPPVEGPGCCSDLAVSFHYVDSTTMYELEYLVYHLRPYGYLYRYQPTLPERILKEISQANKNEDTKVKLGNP

In the case of `CC(=O)N[C@H]1C(O)O[C@H](CO)[C@@H](O)[C@@H]1O[C@@H]1O[C@H](CO)[C@H](O)[C@H](O)[C@H]1O` (stereo partly drawn) [lacto-N-biose], the “Michaelis-Menten kinetics, UGC continuous coupled assay (NDK/PK/LDH)” value at FUT1 [1] is listed as 357 min^–1 (kcat). With `CC(=O)N[C@H]1[C@@H](OCc2ccccc2)O[C@H](CO)[C@H](O)[C@@H]1O[C@@H]1O[C@H](CO)[C@H](O)[C@H](O)[C@H]1O` [T-Bn], the “Michaelis-Menten kinetics, UGC continuous coupled assay (NDK/PK/LDH)” value at FUT1 [1] is recorded as 152 min^–1 (kcat).

Consider `CC(=O)N[C@H]1C(O)O[C@H](CO)[C@H](O)[C@@H]1O[C@@H]1O[C@H](CO)[C@H](O)[C@H](O)[C@H]1O` (stereo partly drawn) [galacto-N-biose], for which the “Michaelis-Menten kinetics, UGC continuous coupled assay (CMK/NDK/PK/LDH)” value on ST3GAL1 [2] is on record as 195 min^–1 (kcat). As to `Nc1ccn([C@@H]2O[C@H](COP(=O)(O)O)[C@@H](O)[C@H]2O)c(=O)n1` [CMP], the “coupled PK/LDH NADH fluorescence progress curves over CMP serial dilution” value at CMK (cytidylate kinase) was “the initial instant phosphorylation of CMP to CDP via CMK followed by a slower phosphorylation of CDP via PK”.

As to `C[C@@H]1O[C@H](OP(=O)(O)OP(=O)(O)OC[C@H]2O[C@@H](n3cnc4c(=O)[nH]c(N)nc43)[C@H](O)[C@@H]2O)[C@@H](O)[C@H](O)[C@@H]1O` [GDP-Fuc], the “donor at fixed saturating concentration in UGC continuous coupled assay (NDK/PK/)” value at FUT1 [3] is “Kinetics parameters for FUT1 were calculated with a saturation concentration of the donor GDP-Fuc and variable concentrations of the acceptors”. Consider `C[C@@H]1O[C@@H](O[C@H]2[C@H](O[C@H]3[C@H](O[C@H]4CC[C@@]5(C)[C@@H](CC[C@]6(C)[C@@H]5CC=C5[C@@H]7CC(C)(C)C[C@@H](O)[C@]7(C)CC[C@]56C)[C@@]4(C)CO)O[C@H](C(=O)O)[C@@H](O)[C@@H]3O)O[C@H](CO)[C@H](O)[C@@H]2O)[C@H](O)[C@H](O)[C@H]1O` [Soyasaponin1], for which the IC50 is 31 µM against ST3GAL1 [4], 52 µM on FUT1 [5], 0.000367 M on C1GALT1 and 5.87e-05 M at ST3GAL1 [6].
